Laboratory results published in patent US20250002527A1, “STEROID COMPOUND AND CONJUGATE THEREOF” (DUALITY BIOLOGICS (SUZHOU) CO., LTD., priority 2021, published 2025).

Assays:
human PBMC cells [1] = experiment: TNF-α secretion from PBMC under R848 stimulation (compounds); type: cell-based; settings: R848 5 μM, 24 hours, mean ± standard deviation
Description: (§1) The compounds of the present application were tested for their inhibitory effect on the production of peripheral blood monocytes. The peripheral blood monocytes were treated in vitro with the ligand-drug conjugate at different concentrations, and IFNα and TNFα generated by the peripheral blood monocytes were quantitatively detected after a certain time. The compounds of the present invention were evaluated for in-vitro activity.
(§2) The cryopreserved human PBMC cells were resuspended in a complete medium and counted, and the cell suspension was adjusted to 2.5×10*6 cells/mL with the culture medium. After the suspension was centrifuged to collect the cells the next day, the cells were resuspended using fresh culture medium. Test compounds were diluted to 4-fold final concentration in cell culture medium, 50 μL of the compounds were added into a 96-well cell plate, and 100 μL of diluted cells ([…]) were added into each well of the 96-well plate containing the compounds, followed by addition of 50 μL R848 to a final concentration of 5 μM. The cell plate was incubated at 37° C. with 5% CO2 for 24 hours. The supernatant was collected, and the TNF-α and IFN-α concentration levels in the supernatant were detected using an ELISA kit.
TNF-α concentration assay was performed using Dakewe TNF-α ELISA kit (Cat #1117202), 100 μL of the serially-diluted cytokine standard was added into each well, 100 μL of the above supernatant diluted 10-fold was added into each well, and 100 μL of 1× dilution buffer R was added into each blank well. 50 μL of biotinylated antibody working solution was added into each well. After mixing well, the plate was covered with the plate-sealing membrane and incubated at room temperature for 3 hours. The plate was washed for 3 times: the liquid in each well was discarded, and 300 μL of 1× washing buffer working solution was added into each well; after 1 minute of residence, the liquid in the wells was discarded. The procedure was repeated for 3 times. 100 μL of Streptavidin-HRP working solution was added into each well. The plate was covered with the plate-sealing membrane and incubated at room temperature for 20 minutes. The plate was washed for 3 times, 100 μL of TMB liquid was added into each well, and the plate was incubated for 25 minutes at room temperature (18-25° C.) in the dark. The reaction was stopped by adding 100 μL stop solution rapidly to each well. The reading at a wavelength of 450 nm was detected by an M2e instrument within 10 minutes after termination.
(§3) The contents of TNF-α and IFN-α were calculated from the OD450 values.

human PBMC cells [2] = experiment: IFN-α secretion from PBMC under R848 stimulation (compounds); type: cell-based; settings: R848 5 μM, 24 hours, mean ± standard deviation
Description: as §1, §2
50 μL of biotinylated antibody working solution was added into each well. After mixing well, the plate was covered with the plate-sealing membrane and incubated at room temperature for 3 hours. […] The procedure was repeated for 3 times. 100 μL of Streptavidin-HRP working solution was added into each well. The plate was covered with the plate-sealing membrane and incubated at room temperature for 20 minutes. The plate was washed for 3 times, 100 μL of TMB liquid was added into each well, and the plate was incubated for 25 minutes at room temperature (18-25° C.) in the dark. The reaction was stopped by adding 100 μL stop solution rapidly to each well. The reading at a wavelength of 450 nm was detected by an M2e instrument within 10 minutes after termination.
as §3

| SMILES | TNF-α secretion (pg/mL) from PBMC under R848 stimulation (human PBMC cells [1]; compound 4 nM) | TNF-α secretion (pg/mL) from PBMC under R848 stimulation (human PBMC cells [1]; compound 20 nM) | TNF-α secretion (pg/mL) from PBMC under R848 stimulation (human PBMC cells [1]; compound 100 nM) | IFN-α secretion (pg/mL) from PBMC under R848 stimulation (human PBMC cells [2]; compound 20 nM) | IFN-α secretion (pg/mL) from PBMC under R848 stimulation (human PBMC cells [2]; compound 100 nM) | IFN-α secretion (pg/mL) from PBMC under R848 stimulation (human PBMC cells [2]; compound 4 nM) |
| --- | --- | --- | --- | --- | --- | --- |
| C[C@]12C=CC(=O)C=C1CC[C@@H]1[C@@H]2[C@@H](O)C[C@@]2(C)[C@H]1C[C@H]1O[C@@H](c3ccc(Cc4cccc(N)c4)cc3)O[C@]12C(=O)CO [Compound 14] | 868 pg/mL | 465.6 pg/mL | 471.9 pg/mL | 10.2 ± 10.2 pg/mL | 13 ± 13 pg/mL | – |
| C[C@@H]1C[C@H]2[C@@H]3CCC4=CC(=O)C=C[C@]4(C)[C@@]3(F)[C@@H](O)C[C@]2(C)[C@@]1(O)C(=O)CO [Dexamethasone, dexamethasone, reference compound] | 1446.5 pg/mL | 761.9 pg/mL | 396.4 pg/mL | 169.6 ± 94.4 pg/mL | 0 ± 0 pg/mL | 620.7 ± 70.4 pg/mL |
